Counter-ions that a name gives are not always drawn. Like-named read-outs stand apart in the source and are kept apart here.
Target: IRAK4 (Homo sapiens (Human), UniProt Q9NWZ3)
Test: IRAK4 Kinase Assay
Format: biochemical
Details: IMAP fluorescence polarization, 0.5 nM GST tagged IRAK4, 100 μM ATP, 30 minutes at 25° C.
Experimental: The kinase activity of IRAK4 is determined by its ability to catalyze the phosphorylation of a fluorescent polypeptide substrate. The extent of phosphorylation is measured using the IMAP technology (Molecular Devices) where the phosphorylated fluorescent substrate binds to the large M(III)-based nanoparticles which reduces the rotational speed of the substrate and thus increases its fluorescent polarization (FP).
20 μL reaction mixture contains 10 mM TriHCl, pH 7.2, 0.5 nM GST tagged IRAK4 (SignalChem), 100 nM fluorescent peptide substrate (RP7030, Molecular Devices), 100 μM ATP, 1 mM DDT, 1 mM MgCl2, and 0.01% Tween 20. The reaction is initiated by the addition of ATP. After incubation for 30 minutes at 25° C., 60 μL of Progressive IMAP Reagent (Molecular Devices) is added to stop the reaction. Change in RP7030's FP is determined by a FP reader (Analyst HT, LJL BioSystems).

Sequence of IRAK4 (Q9NWZ3 whole entry): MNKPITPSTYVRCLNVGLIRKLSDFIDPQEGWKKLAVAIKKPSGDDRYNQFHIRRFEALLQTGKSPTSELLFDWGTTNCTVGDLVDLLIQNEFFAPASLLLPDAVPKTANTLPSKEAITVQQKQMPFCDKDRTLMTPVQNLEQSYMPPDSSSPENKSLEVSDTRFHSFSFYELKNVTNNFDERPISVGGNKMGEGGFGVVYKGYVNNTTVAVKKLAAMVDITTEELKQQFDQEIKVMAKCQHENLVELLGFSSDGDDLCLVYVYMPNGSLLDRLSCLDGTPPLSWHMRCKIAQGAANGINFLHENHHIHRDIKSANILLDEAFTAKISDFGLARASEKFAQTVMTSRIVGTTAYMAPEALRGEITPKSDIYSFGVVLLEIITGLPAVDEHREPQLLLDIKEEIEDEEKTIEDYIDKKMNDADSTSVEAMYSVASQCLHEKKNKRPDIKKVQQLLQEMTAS

SMILES | IC50 (read-out: IRAK4 IC50) [nM] | IC50 (IRAK4 IC50 (nM)) [nM]
N#Cc1sccc1NC(=O)c1cnn2ccc(N[C@@H]3CCCC(F)(F)[C@@H]3N)nc12 [Example 191, 5-{[(1R,2R)-2-amino-3,3-difluorocyclohexyl]amino}-N-(2-cyanothiophen-3-yl)pyrazolo[1,5-a]pyrimidine-3-carboxamide] | 156 | –
O=C(Nc1ccccc1Cl)c1cnn2ccc(N[C@@H]3CCCC[C@@H]3O)nc12 [Example 194, N-(2-chlorophenyl)-5-{[(1R,2S)-2-hydroxycyclohexyl]amino} pyrazolo[1,5-a]pyrimidine-3-carboxamide] | 1750 | –
O=C(Nc1ccccc1Br)c1cnn2ccc(N[C@@H]3CCCC[C@@H]3O)nc12 [Example 195, N-(2-bromophenyl)-5-{[(1R,2S)-2-hydroxycyclohexyl]amino} pyrazolo[1,5-a]pyrimidine-3-carboxamide] | 2930 | –
O=C(Nc1ccsc1Br)c1cnn2ccc(N[C@@H]3CCCC[C@@H]3O)nc12 [Example 196, N-(2-bromothiophen-3-yl)-5-{[(1R,2S)-2-hydroxycyclohexyl]amino} pyrazolo[1,5-a]pyrimidine-3-carboxamide trifluoroacetate] | 2650 | –
CC(C)n1cc(NC(=O)c2cnn3ccc(N[C@@H]4CCCC[C@@H]4O)nc23)c(C(F)F)n1 [Example 199, N-[3-(difluoromethyl)-1-(1-methylethyl)-1H-pyrazol-4-yl]-5-{[(1R,2S)-2-hydroxycyclohexyl]amino} pyrazolo[1,5-a]pyrimidine-3-carboxamide] | 9 | –
CC(C)n1cc(NC(=O)c2cnn3ccc(N[C@@H]4CCCC(F)(F)[C@@H]4N)nc23)c(C(F)F)n1 [Example 200, 5-{[(1R,2R)-2-amino-3,3-difluorocyclohexyl]amino}-N-[3-(difluoromethyl)-1-(1-methylethyl)-1H-pyrazol-4-yl]pyrazolo[1,5-a]pyrimidine-3-carboxamide trifluoroacetate] | 36 | –
Cn1cc(NC(=O)c2cnn3ccc(N4CC5CNCC4COC5)nc23)c(C(F)(F)F)n1 (stereo not drawn) [Example 212, 5-(3-Oxa-7,9-diazabicyclo[3.3.2]decan-9-yl)-N-(1-methyl-3-(trifluoromethyl)-1H-pyrazol-4-yl)pyrazolo[1,5-a]pyrimidine-3-carboxamide] | – | 9
Cn1cc(NC(=O)c2cnn3ccc(N4CC[C@@H]5C[C@H]4CN5)nc23)c(C(F)(F)F)n1 [Example 213, 5-[(1S,5R)-2,6-diazabicyclo[3.2.1]oct-2-yl]-N-[1-methyl-3-(trifluoromethyl)-1H-pyrazol-4-yl]pyrazolo[1,5-a]pyrimidine-3-carboxamide] | 3 | –
Cn1cc(NC(=O)c2cnn3ccc(N4C5CNCC4C5)nc23)c(C(F)(F)F)n1 [Example 214, 5-(3,6-diazabicyclo[3.1.1]hept-6-yl)-N-[1-methyl-3-(trifluoromethyl)-1H-pyrazol-4-yl]pyrazolo[1,5-a]pyrimidine-3-carboxamide] | 38 | –
Cn1cc(NC(=O)c2cnn3ccc(N4CCNCC4C(F)(F)F)nc23)c(C(F)(F)F)n1 (stereo not drawn) [Example 215, N-[1-methyl-3-(trifluoromethyl)-1H-pyrazol-4-yl]-5-[2-(trifluoromethyl)piperazin-1-yl]pyrazolo[1,5-a]pyrimidine-3-carboxamide trifluoroacetate] | 121 | –
Cn1cc(NC(=O)c2cnn3ccc(N4CCNCC4(C)C)nc23)c(C(F)(F)F)n1 [Example 216, 5-(2,2-dimethylpiperazin-1-yl)-N-[1-methyl-3-(trifluoromethyl)-1H-pyrazol-4-yl]pyrazolo[1,5-a]pyrimidine-3-carboxamide trifluoroacetate] | 127 | –
Cn1cc(NC(=O)c2cnn3ccc(NC4CNCC(F)(F)C4)nc23)c(C(F)(F)F)n1 (stereo not drawn) [Example 217, 5-[(5,5-difluoropiperidin-3-yl)amino]-N-[1-methyl-3-(trifluoromethyl)-1H-pyrazol-4-yl]pyrazolo[1,5-a]pyrimidine-3-carboxamide] | 47 | –

Source: patent US10329294B2, “Pyrazolopyrimidine inhibitors of IRAK4 activity” (MERCK SHARP & DOHME CORP., priority 2015, dated 2019)
